What was measured:
[1] = biological target: Tb-labeled inactive PDGFRβ (Homo sapiens (Human), UniProt P09619); assay: PDGFRβ LanthaScreen Assay; format: binding; conditions: read-out: PDGFR Lantha IC50
VEGFR2, unphosphorylated = VEGFR2, unphosphorylated (Homo sapiens (Human), UniProt P35968); assay: VEGFR ADP GLO Assay; format: biochemical
Sequence of VEGFR2, unphosphorylated (P35968 20-1356): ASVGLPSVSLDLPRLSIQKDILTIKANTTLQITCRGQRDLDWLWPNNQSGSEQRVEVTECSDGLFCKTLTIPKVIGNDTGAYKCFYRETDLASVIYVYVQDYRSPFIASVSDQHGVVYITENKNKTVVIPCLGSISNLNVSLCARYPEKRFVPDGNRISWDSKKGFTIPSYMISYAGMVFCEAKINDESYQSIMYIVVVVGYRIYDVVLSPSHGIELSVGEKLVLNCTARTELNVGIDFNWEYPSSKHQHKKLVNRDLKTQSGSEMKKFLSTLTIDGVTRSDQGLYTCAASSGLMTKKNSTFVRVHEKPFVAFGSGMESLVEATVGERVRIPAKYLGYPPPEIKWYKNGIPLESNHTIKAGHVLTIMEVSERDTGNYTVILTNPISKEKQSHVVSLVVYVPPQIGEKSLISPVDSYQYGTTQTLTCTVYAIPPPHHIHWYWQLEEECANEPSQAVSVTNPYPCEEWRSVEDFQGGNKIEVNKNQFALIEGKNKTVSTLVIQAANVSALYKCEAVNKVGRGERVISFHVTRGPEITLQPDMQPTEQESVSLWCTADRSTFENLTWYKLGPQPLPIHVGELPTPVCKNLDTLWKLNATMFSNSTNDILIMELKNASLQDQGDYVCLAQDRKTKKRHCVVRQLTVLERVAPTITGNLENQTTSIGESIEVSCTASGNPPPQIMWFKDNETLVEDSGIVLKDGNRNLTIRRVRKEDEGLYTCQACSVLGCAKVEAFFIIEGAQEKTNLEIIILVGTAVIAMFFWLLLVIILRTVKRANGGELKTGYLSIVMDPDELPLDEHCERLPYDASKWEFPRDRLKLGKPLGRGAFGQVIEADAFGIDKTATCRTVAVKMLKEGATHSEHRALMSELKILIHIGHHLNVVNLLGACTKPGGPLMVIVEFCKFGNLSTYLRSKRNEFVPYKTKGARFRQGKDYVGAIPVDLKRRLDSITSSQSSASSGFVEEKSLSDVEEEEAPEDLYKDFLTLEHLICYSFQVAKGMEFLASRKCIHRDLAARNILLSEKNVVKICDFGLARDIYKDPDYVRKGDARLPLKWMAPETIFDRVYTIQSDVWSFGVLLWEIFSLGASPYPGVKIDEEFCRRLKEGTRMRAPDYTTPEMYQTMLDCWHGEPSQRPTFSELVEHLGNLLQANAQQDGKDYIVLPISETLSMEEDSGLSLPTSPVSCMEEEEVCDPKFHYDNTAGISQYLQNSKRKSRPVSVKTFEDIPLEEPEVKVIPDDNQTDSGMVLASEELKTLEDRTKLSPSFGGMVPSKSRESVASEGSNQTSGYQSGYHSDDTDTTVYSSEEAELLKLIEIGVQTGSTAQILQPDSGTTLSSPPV

Sequence of Tb-labeled inactive PDGFRβ (P09619 33-1106): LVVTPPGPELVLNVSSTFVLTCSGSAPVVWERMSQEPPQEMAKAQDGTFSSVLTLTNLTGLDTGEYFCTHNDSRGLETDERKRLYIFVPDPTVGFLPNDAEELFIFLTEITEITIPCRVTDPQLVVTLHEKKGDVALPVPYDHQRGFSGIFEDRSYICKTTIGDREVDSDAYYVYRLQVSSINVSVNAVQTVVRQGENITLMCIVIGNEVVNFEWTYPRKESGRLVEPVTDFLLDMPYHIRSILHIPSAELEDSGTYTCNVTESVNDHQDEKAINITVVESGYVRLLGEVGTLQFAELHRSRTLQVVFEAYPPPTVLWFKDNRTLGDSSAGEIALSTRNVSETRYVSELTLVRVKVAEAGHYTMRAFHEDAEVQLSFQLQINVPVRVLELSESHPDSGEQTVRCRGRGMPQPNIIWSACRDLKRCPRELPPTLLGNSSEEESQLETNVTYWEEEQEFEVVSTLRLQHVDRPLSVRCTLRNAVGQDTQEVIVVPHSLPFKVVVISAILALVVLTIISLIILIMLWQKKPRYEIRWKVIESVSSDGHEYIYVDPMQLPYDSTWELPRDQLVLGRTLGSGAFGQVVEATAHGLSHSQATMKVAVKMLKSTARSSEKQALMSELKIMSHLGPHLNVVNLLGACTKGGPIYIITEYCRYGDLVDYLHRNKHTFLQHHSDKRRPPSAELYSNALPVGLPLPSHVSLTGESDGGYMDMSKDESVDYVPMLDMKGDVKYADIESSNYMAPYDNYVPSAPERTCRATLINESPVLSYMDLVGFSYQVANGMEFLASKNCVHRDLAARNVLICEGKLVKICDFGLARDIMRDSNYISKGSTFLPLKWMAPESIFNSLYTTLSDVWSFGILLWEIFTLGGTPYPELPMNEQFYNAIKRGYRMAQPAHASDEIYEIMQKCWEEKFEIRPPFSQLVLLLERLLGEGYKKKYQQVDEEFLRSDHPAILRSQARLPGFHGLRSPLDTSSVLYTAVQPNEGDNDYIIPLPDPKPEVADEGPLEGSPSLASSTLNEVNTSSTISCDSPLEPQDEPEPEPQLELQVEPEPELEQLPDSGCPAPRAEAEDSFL

Row | SMILES | IC50 [1] [nM] | IC50 (VEGFR2, unphosphorylated) [nM]
1 | Cc1ncc(C(=O)NCCN2CCC3(CC3)C2)cc1NC(=O)c1cnn2cc(-c3cnn(C)c3)sc12 [Example 118, N-(5-((2-(5-azaspiro[2.4]heptan-5-yl)ethyl)carbamoyl)-2-methylpyridin-3-yl)-2-(1-methyl-1H-pyrazol-4-yl)pyrazolo[5,1-b]thiazole-7-carboxamide] | 7.1 | > 7500
2 | Cc1ncc(C(=O)NCCN2CCC(F)(F)CC2)cc1NC(=O)c1cnn2cc(-c3cccnc3)sc12 [Example 157, N-(5-((2-(4,4-difluoropiperidin-1-yl)ethyl)carbamoyl)-2-methylpyridin-3-yl)-2-(pyridin-3-yl)pyrazolo[5,1-b]thiazole-7-carboxamide] | 5.9 | > 7500
3 | Cc1ncc(C(=O)NCCN2CC(C)(C)C2)cc1NC(=O)c1cnn2cc(-c3ccncc3)sc12 [Example 155, N-(5-((2-(3,3-dimethylazetidin-1-yl)ethyl)carbamoyl)-2-methylpyridin-3-yl)-2-(pyridin-4-yl)pyrazolo[5,1-b]thiazole-7-carboxamide] | 39.4 | > 7500
4 | CC(=O)Nc1ccnc(-c2cn3ncc(C(=O)Nc4cc(C(=O)NCCN5CC6CCC5CC6)cnc4C)c3s2)c1 [Example 146, N-(5-((2-(2-azabicyclo[2.2.2]octan-2-yl)ethyl)carbamoyl)-2-methylpyridin-3-yl)-2-(4-acetamidopyridin-2-yl)pyrazolo[5,1-b]thiazole-7-carboxamide] | 4.3 | > 7500
5 | COCCn1cc(-c2cn3ncc(C(=O)Nc4cc(C(=O)NCCN5CC(C)(C)C5)cnc4C)c3s2)cn1 [Example 166, N-(5-((2-(3,3-dimethylazetidin-1-yl)ethyl)carbamoyl)-2-methylpyridin-3-yl)-2-(1-(2-methoxyethyl)-1H-pyrazol-4-yl)pyrazolo[5,1-b]thiazole-7-carboxamide] | 13.9 | > 7500
6 | Cc1ncc(C(=O)NCCN2CCCC2(C)C)cc1NC(=O)c1cnn2cc(-c3cncnc3)sc12 [Example 139, N-(5-((2-(2,2-dimethylpyrrolidin-1-yl)ethyl)carbamoyl)-2-methylpyridin-3-yl)-2-(pyrimidin-5-yl)pyrazolo[5,1-b]thiazole-7-carboxamide] | 182 | > 7500
7 | Cc1ncc(C(=O)NCCN2CCCC2(C)C)cc1NC(=O)c1cnn2cc(-c3cnn(C)c3C)sc12 [Example 173, 2-(1,5-dimethyl-1H-pyrazol-4-yl)-N-(5-((2-(2,2-dimethylpyrrolidin-1-yl)ethyl)carbamoyl)-2-methylpyridin-3-yl)pyrazolo[5,1-b]thiazole-7-carboxamide] | 3.1 | > 7500
8 | Cc1ncc(C(=O)NCCN2CC3CCC2CC3)cc1NC(=O)c1cnn2cc(-c3ccc4oc(=O)[nH]c4c3)sc12 [Example 145, N-(5-((2-(2-azabicyclo[2.2.2]octan-2-yl)ethyl)carbamoyl)-2-methylpyridin-3-yl)-2-(2-oxo-2,3-dihydrobenzo[d]oxazol-5-yl)pyrazolo[5,1-b]thiazole-7-carboxamide] | 1.4 | > 833
9 | Cc1ncc(C(=O)NCCN2CC(C)(C)C2)cc1NC(=O)c1cnn2cc(-c3cccnc3)sc12 [Example 158, N-(5-((2-(3,3-dimethylazetidin-1-yl)ethyl)carbamoyl)-2-methylpyridin-3-yl)-2-(pyridin-3-yl)pyrazolo[5,1-b]thiazole-7-carboxamide] | 32.5 | > 7500
10 | Cc1ncc(C(=O)NCCN2CCC3(CC3)C2)cc1NC(=O)c1cnn2cc(-c3cnn(C)c3C)sc12 [Example 170, N-(5-((2-(5-azaspiro[2.4]heptan-5-yl)ethyl)carbamoyl)-2-methylpyridin-3-yl)-2-(1,5-dimethyl-1H-pyrazol-4-yl)pyrazolo[5,1-b]thiazole-7-carboxamide] | 4.1 | > 7500

Reference: US20240109917A1 (ACTELION PHARMACEUTICALS LTD, priority 2020, published 2024)
